Laboratory results taken from US12268690B2, “Treatments for mutations in acute myeloid leukemia” (OREGON HEALTH & SCIENCE UNIVERSITY, priority 2018, dated 2025).

Test system: freshly isolated mononuclear cells from AML samples
Assay: Ex vivo functional drug screen (MTS viability, AUC) on primary AML samples, compared by mutation or clinical group
Format: cell-based, human
From the text: This panel contained graded concentrations of a drugs with activity against two-thirds of the tyrosine kinome as well as other non-tyrosine kinase pathways, including MAPKs, PI3K/AKT/mTOR, AMPK, ATM, Aurora kinases, CAMKs, CDKs, GSK3a/b, IκK, PKA, PKC, PLK1, and RAF. In addition, the library contained small molecule inhibitors with activity against the BCL2 family, BRD4, Hedgehog, HSP90, NOTCH/gamma-secretase, proteasome, survivin, STAT3, and WNT/beta-catenin. Drug sensitivity patterns were analyzed with respect to clinical and genetic features of tumors. We compared the average area-under-the curve (AUC) values for each drug between the de novo and transformed samples via a series of single factor ANOVAs. […] In addition, we analyzed the concordance of drug sensitivity patterns with respect to predicted target gene, gene family, or pathway for each drug. […] To create a global view of overall sensitivity or resistance of each case, we generated a heatmap of binary sensitive/resistant calls for each sample to each drug.
Correlation of drug sensitivity with mutational events was performed by assessing the range of sensitivity of cases with mutation of an individual gene (as well as co-occurring mutational events) versus cases with wild type sequence for that same gene. […] The difference in average drug sensitivity of mutant versus wild type cases for each drug/mutation pair was plotted on the horizontal axis of a volcano plot with a test for statistical significance of the comparison plotted on the vertical axis (corrected for multiple comparison false discovery rate^42; FIG. 4). […] To aid in discovery of potential mutational biomarkers of drug sensitivity, we plotted volcano plots that were specific to each individual drug (versus all possible mutational events) and for each individual gene (versus all possible drugs tested).
Ex vivo drug screens were performed on freshly isolated mononuclear cells from AML samples as previously described^41.
Ex vivo functional drug screens were performed on freshly isolated mononuclear cells from AML samples. […] Drug plates were created using inhibitors purchased from LC Laboratories and Selleck Chemicals and master stocks were reconstituted in DMSO and stored at −80° C. […] DMSO control wells and positive control wells containing a drug combination of Flavopiridol, Staurosporine and Velcade were placed on each plate, with the final concentration of DMSO ≤0.1% in all wells. Daughter plates were created using a V&P Scientific 384-well pin tool head operated by the Caliper Sciclone ALH 3000 and equipped with 0.457 mm diameter, 30 nanoliter, slotted stainless steel pins (cat num: FP1NS30). Daughter and destination plates were sealed with pealable thermal seals using a PlateLoc thermal sealer. Destination plates were stored at −20° C. for no more than three months and thawed immediately before use. Primary mononuclear cells were plated across single-agent inhibitor panels within 24 h of collection. […] After 3 d of culture at 37° C. in 5% CO2, MTS reagent (CellTiter96 AQueous One; Promega) was added, optical density was measured at 490 nm, and raw absorbance values were adjusted to a reference blank value and then used to determine cell viability (normalized to untreated control wells).
A given sample was run on one or more panels and within each panel, the majority of drugs were run without within-panel replicates. […] An additional set of ‘curve-free’ AUCs was computed for sample-inhibitor pairs run on multiple panels.
Based on the methodology used in our prior drug combination study^36, a probit regression was fit to all possible run groups using the model: (normalized_viability/100)˜1+log 10(concentration) Where for all groups there were N=7 dose-response measurements. The summary measures of curve fit were inspected and cutoffs were devised removing all runs with an AIC >12 and deviance >2.

## COc1ccc(COc2ccc(Cc3cnc(N)nc3N)cc2OC)cc1 [GW-2580]
IDH2
  drug sensitivity mutant vs wild type (average difference in AUC; top left quadrant of volcano plot): GW-2580
NPM1:IDH2
  drug sensitivity mutant vs wild type (average difference in AUC; top left quadrant of volcano plot): GW-2580
NPM1:SRSF2
  drug sensitivity mutant vs wild type (average difference in AUC; top left quadrant of volcano plot): gw-2580

## CCOc1cc2ncc(C#N)c(Nc3ccc(F)c(Cl)c3)c2cc1NC(=O)/C=C/CN(C)C [Pelitinib]
FLT3_ITD
  drug sensitivity mutant vs wild type (average difference in AUC; top left quadrant of volcano plot): pelitinib
NPM1
  drug sensitivity mutant vs wild type (average difference in AUC; top left quadrant of volcano plot): Pelitinib
NPM1:FLT3_ITD
  drug sensitivity mutant vs wild type (average difference in AUC; top left quadrant of volcano plot): pelitinib

## Nc1nc(Nc2ccc(S(N)(=O)=O)cc2)nn1C(=O)c1c(F)cccc1F [JNJ-7706621, 4-((5-amino-1-(2,6-difluorobenzoyl)-1H-1,2,4-triazol-3-yl)amino)benzenesulfonamide]
NPM1:DNMT3A
  drug sensitivity mutant vs wild type (average difference in AUC; top left quadrant of volcano plot): JNJ-7706621
NPM1:IDH1
  drug sensitivity mutant vs wild type (average difference in AUC; top left quadrant of volcano plot): JNJ-7706621

## O=c1cc(-c2cccc3c2Sc2ccccc2S3)oc(N2CCOCC2)c1 [KU-55933]
ZRSR2
  drug sensitivity mutant vs wild type (average difference in AUC; top left quadrant of volcano plot): KU-55933

## CC1(C)CNc2cc(NC(=O)c3cccnc3NCc3ccncc3)ccc21 [motesanib]
FLT3_ITD:RUNX1
  drug sensitivity mutant vs wild type (average difference in AUC; top left quadrant of volcano plot): motesanib

## Cc1ccc2nc(NCCN)c3ncc(C)n3c2c1 [BMS-345541, N′-(1,8-dimethyl-4-imidazo[1,2-a]quinoxalinyl)ethane-1,2-diamine]
PDS5B
  drug sensitivity mutant vs wild type (average difference in AUC; top left quadrant of volcano plot): BMS-345541

## Nc1cccc2c1CN(C1CCC(=O)NC1=O)C2=O (stereo not drawn) [Lenalidomide]
NPM1
  drug sensitivity mutant vs wild type (average difference in AUC; top left quadrant of volcano plot): Lenalidomide
NPM1:SRSF2
  drug sensitivity mutant vs wild type (average difference in AUC; top left quadrant of volcano plot): lenalidomide

## Cn1c(Nc2ccc(C(F)(F)F)cc2)nc2cc(Oc3ccnc(-c4ncc(C(F)(F)F)[nH]4)c3)ccc21 [RAF265, 1-methyl-5-((2-(5-(trifluoromethyl)-1H-imidazol-2-yl)pyridin-4-yl)oxy)-N-(4-(trifluoromethyl)phenyl)-1H-benzo[d]imidazol-2-amine]
BCOR
  drug sensitivity mutant vs wild type (average difference in AUC; top left quadrant of volcano plot): RAF265
WT1
  drug sensitivity mutant vs wild type (average difference in AUC; top left quadrant of volcano plot): RAF265

## NC1(c2ccc(-c3nc4ccn5c(=O)[nH]nc5c4cc3-c3ccccc3)cc2)CCC1 [MK-2206]
WT1
  drug sensitivity mutant vs wild type (average difference in AUC; top left quadrant of volcano plot): MK-2206

## CCS(=O)(=O)O.COC(=O)c1ccc2c(c1)NC(=O)/C2=C(\Nc1ccc(N(C)C(=O)CN2CCN(C)CC2)cc1)c1ccccc1 [Vargetef]
FLT3_ITD
  drug sensitivity mutant vs wild type (average difference in AUC; top left quadrant of volcano plot): vargetef
FLT3_ITD:DNMT3A
  drug sensitivity mutant vs wild type (average difference in AUC; top left quadrant of volcano plot): vargetef
FLT3_ITD:FLT3
  drug sensitivity mutant vs wild type (average difference in AUC; top left quadrant of volcano plot): vargetef
FLT3_ITD:TET2
  drug sensitivity mutant vs wild type (average difference in AUC; top left quadrant of volcano plot): vargetef
FLT3_ITD:TET2:DNMT3A
  drug sensitivity mutant vs wild type (average difference in AUC; top left quadrant of volcano plot): Vargetef
FLT3_ITD_IHD2
  drug sensitivity mutant vs wild type (average difference in AUC; top left quadrant of volcano plot): vargetef
IDH2
  drug sensitivity mutant vs wild type (average difference in AUC; top left quadrant of volcano plot): Vargetef
NPM1
  drug sensitivity mutant vs wild type (average difference in AUC; top left quadrant of volcano plot): Vagetef
NPM1:FLT3_ITD
  drug sensitivity mutant vs wild type (average difference in AUC; top left quadrant of volcano plot): vargetef
NPM1:FLT3_ITD:DNMT3A
  drug sensitivity mutant vs wild type (average difference in AUC; top left quadrant of volcano plot): vargetef
NPM1:FLT3_ITD:TET2
  drug sensitivity mutant vs wild type (average difference in AUC; top left quadrant of volcano plot): vargetef
NPM1:IDH2
  drug sensitivity mutant vs wild type (average difference in AUC; top left quadrant of volcano plot): Vargetef
NPM1:SRSF2
  drug sensitivity mutant vs wild type (average difference in AUC; top left quadrant of volcano plot): Vargetef
NPM1:TET2: DNMT3A
  drug sensitivity mutant vs wild type (average difference in AUC; top left quadrant of volcano plot): Vargetef

## COc1cc(Oc2ccnc3cc(OC)c(OC)cc23)ccc1NC(=O)NC(C)c1nccs1 (stereo not drawn) [KI20227]
NPM1:SRSF2:IDH2
  drug sensitivity mutant vs wild type (average difference in AUC; top left quadrant of volcano plot): KI20227

## C=CC(=O)Nc1cc2c(Nc3ccc(F)c(Cl)c3)ncnc2cc1OCCCN1CCOCC1 [canertinib]
FLT3_ITD
  drug sensitivity mutant vs wild type (average difference in AUC; top left quadrant of volcano plot): canertinib
FLT3_ITD:TET2
  drug sensitivity mutant vs wild type (average difference in AUC; top left quadrant of volcano plot): canertinib
FLT3_ITD_IHD2
  drug sensitivity mutant vs wild type (average difference in AUC; top left quadrant of volcano plot): canertinib
NPM1:FLT3_ITD
  drug sensitivity mutant vs wild type (average difference in AUC; top left quadrant of volcano plot): canertinib
SMC1A
  drug sensitivity mutant vs wild type (average difference in AUC; top left quadrant of volcano plot): canertinib
